Measured values as given in patent publication US10428081B2, “EGFR inhibitor, preparation method and use thereof” (Shanghai Hansoh Biomedical Co., Ltd., priority 2014, dated 2019).

Key:
[1] = target: exon 20 T790M mutant-type EGFR enzyme (Homo sapiens, UniProt P00533, T790M); experiment: Enzymologic experiment of T790M mutant-type EGFR (TR-FRET); type: biochemical; settings: for IC50: T790M EGFR enzyme, TR-FRET, ATP 1 to 10 uM; for Selectivity of wild-type/mutant-type: ratio WT IC50 / T790M IC50, enzyme
Summary of the method: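 Compound dilutions preincubated 10 min at room temperature; reaction ended with EDTA, then labeled antibody added for 1 h at room temperature. Inhibition rates derived from TR-FRET fluorescence signal, and IC50 obtained by curve fitting across concentrations.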

wild-type EGFR enzyme = wild-type EGFR enzyme (Homo sapiens, UniProt P00533); experiment: Enzymologic experiment of wild-type (WT) EGFR (TR-FRET); type: biochemical; settings: ATP 0.1 to 5 uM
Summary of the method: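 Wild-type EGFR (0.1 to 1 nM final) preincubated with serially diluted compound for 10 minutes at room temperature; reaction stopped with EDTA, then labelled antibody added for 1 hour at room temperature. TR-FRET signal converted to inhibition rates; IC50 from curve fitting across concentrations.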

NCI-H1975 cells = experiment: Inhibition of NCI-H1975 cell proliferation (CellTiter-Glo); type: cell-based; settings: for IC50: Homo sapiens, NCI-H1975, 72 h, NCI-H1975 cell proliferation, 72 hours, CellTiter-Glo, read-out: EGFR IC50 (nM) H1975; for Selectivity of wild-type/mutant-type: ratio A431 IC50 / H1975 IC50, cells
A431 cells = experiment: Inhibition of A431 cell proliferation (CellTiter-Glo); type: cell-based; settings: Homo sapiens, A-431, 72 h, read-out: EGFR IC50 (nM) A431
Summary of the method: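 Viability read as CellTiter-Glo luminescence; IC50 by curve fitting of inhibition rates.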

Sequence of wild-type EGFR enzyme (P00533 25-1210): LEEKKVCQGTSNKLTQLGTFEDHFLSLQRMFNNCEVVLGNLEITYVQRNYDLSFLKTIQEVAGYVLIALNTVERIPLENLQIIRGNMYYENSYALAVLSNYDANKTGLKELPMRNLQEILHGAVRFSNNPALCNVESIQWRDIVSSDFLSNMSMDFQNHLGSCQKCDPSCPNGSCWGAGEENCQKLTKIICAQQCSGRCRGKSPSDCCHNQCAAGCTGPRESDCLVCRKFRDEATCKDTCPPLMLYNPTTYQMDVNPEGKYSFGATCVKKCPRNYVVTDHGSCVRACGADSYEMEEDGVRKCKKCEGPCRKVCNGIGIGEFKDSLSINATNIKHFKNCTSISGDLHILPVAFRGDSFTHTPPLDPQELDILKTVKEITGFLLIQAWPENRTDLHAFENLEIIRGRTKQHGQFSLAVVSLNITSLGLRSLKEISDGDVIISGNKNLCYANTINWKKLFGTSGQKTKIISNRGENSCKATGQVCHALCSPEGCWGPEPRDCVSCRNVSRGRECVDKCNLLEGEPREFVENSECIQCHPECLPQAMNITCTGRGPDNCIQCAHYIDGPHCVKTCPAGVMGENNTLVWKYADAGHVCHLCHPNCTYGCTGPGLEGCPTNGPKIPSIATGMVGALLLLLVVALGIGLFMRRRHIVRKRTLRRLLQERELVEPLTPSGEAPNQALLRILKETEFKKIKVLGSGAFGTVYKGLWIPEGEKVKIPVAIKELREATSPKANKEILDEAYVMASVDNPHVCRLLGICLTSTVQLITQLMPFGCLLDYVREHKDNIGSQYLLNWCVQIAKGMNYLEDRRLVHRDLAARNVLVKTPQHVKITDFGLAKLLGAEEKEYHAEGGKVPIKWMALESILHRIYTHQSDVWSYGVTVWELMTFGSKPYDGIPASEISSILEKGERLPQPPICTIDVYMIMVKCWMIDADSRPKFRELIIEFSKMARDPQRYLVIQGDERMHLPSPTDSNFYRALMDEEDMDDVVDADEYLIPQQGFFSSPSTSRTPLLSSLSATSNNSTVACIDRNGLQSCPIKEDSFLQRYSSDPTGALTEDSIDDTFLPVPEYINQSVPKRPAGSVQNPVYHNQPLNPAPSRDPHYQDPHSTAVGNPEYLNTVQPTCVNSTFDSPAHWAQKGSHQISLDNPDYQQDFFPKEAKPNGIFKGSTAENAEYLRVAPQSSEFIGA
Sequence of exon 20 T790M mutant-type EGFR enzyme (P00533 25-1210 T790M): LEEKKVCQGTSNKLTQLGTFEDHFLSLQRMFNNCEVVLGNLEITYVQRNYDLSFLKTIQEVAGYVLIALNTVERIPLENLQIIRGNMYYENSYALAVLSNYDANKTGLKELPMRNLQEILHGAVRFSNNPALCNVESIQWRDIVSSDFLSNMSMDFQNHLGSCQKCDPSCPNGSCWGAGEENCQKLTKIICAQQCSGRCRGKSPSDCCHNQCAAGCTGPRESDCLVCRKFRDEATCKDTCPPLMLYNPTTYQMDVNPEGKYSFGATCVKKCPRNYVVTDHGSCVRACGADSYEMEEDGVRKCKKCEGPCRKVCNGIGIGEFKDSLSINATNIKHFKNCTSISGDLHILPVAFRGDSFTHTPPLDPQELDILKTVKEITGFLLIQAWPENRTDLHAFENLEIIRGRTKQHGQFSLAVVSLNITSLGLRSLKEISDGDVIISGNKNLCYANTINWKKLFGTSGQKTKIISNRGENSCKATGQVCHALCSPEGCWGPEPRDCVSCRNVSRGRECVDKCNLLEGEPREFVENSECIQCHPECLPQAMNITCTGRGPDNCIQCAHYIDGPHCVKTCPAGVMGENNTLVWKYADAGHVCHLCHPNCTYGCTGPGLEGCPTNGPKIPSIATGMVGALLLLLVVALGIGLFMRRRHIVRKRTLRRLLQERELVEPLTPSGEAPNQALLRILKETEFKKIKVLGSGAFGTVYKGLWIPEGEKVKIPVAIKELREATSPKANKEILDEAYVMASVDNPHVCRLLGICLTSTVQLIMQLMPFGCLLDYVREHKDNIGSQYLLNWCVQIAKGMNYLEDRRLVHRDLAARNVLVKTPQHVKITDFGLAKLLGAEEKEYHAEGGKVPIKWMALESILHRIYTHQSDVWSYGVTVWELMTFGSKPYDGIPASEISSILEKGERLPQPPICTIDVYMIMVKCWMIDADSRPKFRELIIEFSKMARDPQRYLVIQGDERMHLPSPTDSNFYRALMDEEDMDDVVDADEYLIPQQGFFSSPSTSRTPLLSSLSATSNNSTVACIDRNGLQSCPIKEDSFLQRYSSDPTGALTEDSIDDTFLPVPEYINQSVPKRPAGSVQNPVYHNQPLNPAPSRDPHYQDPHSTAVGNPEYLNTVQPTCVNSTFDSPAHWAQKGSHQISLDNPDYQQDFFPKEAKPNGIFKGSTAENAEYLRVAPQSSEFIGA

Compound | IC50 [1] [nM] | Selectivity of wild-type/mutant-type [1] | IC50 (wild-type EGFR enzyme) [nM] | IC50 (NCI-H1975 cells) [nM] | IC50 (A431 cells) [nM] | Selectivity of wild-type/mutant-type (NCI-H1975 cells)
C=CC(=O)Nc1cc(Nc2nccc(-n3ncc4ccc(C#N)cc43)n2)c(OC)cc1N(C)CCN(C)C [Example 112, N-(5-((4-(6-cyano-1H-indazol-1-yl)pyrimidin-2-yl)amino)-2-((2-(dimethylamino)ethyl)(methyl)amino)-4-methoxyphenyl)acrylamide] | 3.45 | 13.61 | 46.9 | 15.6 | 257 | 16.51
C=CC(=O)Nc1cc(Nc2ncc(C(F)(F)F)c(-n3nc(C4CC4)c4cc(OC)ccc43)n2)c(OC)cc1N(C)CCN(C)C [Example 114, N-(5-((4-(3-cyclopropyl-5-methoxy-1H-indazol-1-yl)-5-(trifluoromethyl)pyrimidin-2-yl)amino)-2-((2-(dimethylamino)ethyl)(methyl)amino)-4-methoxyphenyl)acrylamide] | 2.28 | 18.40 | 42 | 11.6 | 122 | 10.47
C=CC(=O)Nc1cc(Nc2ncc(Cl)c(-n3nc(CC)c4cc(C#N)ccc43)n2)c(OC)cc1N(C)CCN(C)C [Example 118, N-(5-((5-chloro-4-(5-cyano-3-ethyl-1H-indazol-1-yl)pyrimidin-2-yl)amino)-2-((2-(dimethylamino)ethyl)(methyl)amino)-4-methoxyphenyl)acrylamide] | 0.71 | 39.30 | 27.9 | 93.7 | 374 | 3.99
C=CC(=O)Nc1cc(Nc2nccc(-n3cnc4ccccc43)n2)c(OC)cc1N(C)CCN(C)C [Example 120, N-(5-((4-(1H-benzo[d]imidazol-1-yl)pyrimidin-2-yl)amino)-2-((2-(dimethylamino)ethyl)(methyl)amino)-4-methoxyphenyl)acrylamide] | 1.05 | 3.49 | 3.66 | 4.91 | 115 | 23.44
C=CC(=O)Nc1cc(Nc2nccc(-c3cn(C4CC4)c4ccccc34)n2)c(OC)cc1N(C)CCN1CCCC1 [Example 123, N-(5-((4-(1-cyclopropyl-1H-indol-3-yl)pyrimidin-2-yl)amino)-4-methoxy-2-(methyl(2-(pyrrolidin-1-yl)ethyl)amino)phenyl)acrylamide] | 1.28 | 21.23 | 27.2 | 14.9 | 527 | 35.37
C=CC(=O)Nc1cc(Nc2nccc(-c3cn4c5c(cccc35)CCC4)n2)c(OC)cc1N(C)CCN(C)C [Example 125, N-(5-((4-(5,6-dihydro-4H-pyrrolo[3,2,1-ij]quinolin-1-yl)pyrimidin-2-yl)amino)-2-((2-(dimethylamino)ethyl)(methyl)amino)-4-methoxyphenyl)acrylamide] | 1.42 | 9.15 | 13 | 9.58 | 385 | 40.18
C#CCn1cc(-c2ccnc(Nc3cc(NC(=O)C=C)c(N(C)CCNC)cc3OC)n2)c2ccccc21 [Example 129, N-(4-methoxy-2-(methyl(2-(methylamino)ethyl)amino)-5-((4-(1-(prop-2-yn-1-yl)-1H-indol-3-yl)pyrimidin-2-yl)amino)phenyl)acrylamide] | 1.01 | 13.58 | 13.7 | 6.22 | 690 | 110.93
C=CC(=O)Nc1cc(Nc2nccc(-n3ncc4cc(OCCOC)ccc43)n2)c(OC)cc1N(C)CCN1CCCC1 [Example 134, N-(4-methoxy-5-((4-(5-(2-methoxyethoxy)-1H-indazol-1-yl)pyrimidin-2-yl)amino)-2-(methyl(2-(pyrrolidin-1-yl)ethyl)amino)phenyl)acrylamide] | 1.85 | 10.75 | 19.9 | 12.3 | 325 | 26.45
C=CC(=O)Nc1cc(Nc2nccc(-n3ncc4ccc(OC)cc43)n2)c(OC)cc1N(C)CCN1CCCC1 [Example 136, N-(4-methoxy-5-((4-(6-methoxy-1H-indazol-1-yl)pyrimidin-2-yl)amino)-2-(methyl(2-(pyrrolidin-1-yl)ethyl)amino)phenyl)acrylamide] | 0.78 | 5.55 | 4.33 | 11.2 | 336 | 30.04
C=CC(=O)Nc1cc(Nc2nccc(-n3ncc4cc(OC)ccc43)n2)c(OC)cc1N(C)CCN1CCCC1 [Example 137, N-(4-methoxy-5-((4-(5-methoxy-1H-indazol-1-yl)pyrimidin-2-yl)amino)-2-(methyl(2-(pyrrolidin-1-yl)ethyl)amino)phenyl)acrylamide] | 1.03 | 6.13 | 6.31 | 9.52 | 406 | 42.70

Compounds with a lower IC50 [1], results first:

IC50 [1] [nM] | Selectivity of wild-type/mutant-type [1] | IC50 (wild-type EGFR enzyme) [nM] | IC50 (NCI-H1975 cells) [nM] | IC50 (A431 cells) [nM] | Compound | Selectivity of wild-type/mutant-type (NCI-H1975 cells)
0.36 | 4.50 | 1.62 | 3.17 | 233 | C=CC(=O)Nc1cc(Nc2nccc(-n3nc(C4CC4)c4cc(OC)ccc43)n2)c(OC)cc1N(C)CCN(C)C [Example 113, N-(5-((4-(3-cyclopropyl-5-methoxy-1H-indazol-1-yl)pyrimidin-2-yl)amino)-2-((2-(dimethylamino)ethyl)(methyl)amino)-4-methoxyphenyl)acrylamide] | 73.42
0.37 | 10.65 | 3.94 | 4.98 | 101 | C=CC(=O)Nc1cc(Nc2ncc(Cl)c(-n3nc(C4CC4)c4cc(OC)ccc43)n2)c(OC)cc1N(C)CCN(C)C [Example 115, N-(5-((5-chloro-4-(3-cyclopropyl-5-methoxy-1H-indazol-1-yl)pyrimidin-2-yl)amino)-2-((2-(dimethylamino)ethyl)(methyl)amino)-4-methoxyphenyl)acrylamide] | 20.34
0.61 | 71.05 | 43.3 | 29.9 | 199 | C=CC(=O)Nc1cc(Nc2ncc(C(F)(F)F)c(-n3nc(CC)c4cc(C#N)ccc43)n2)c(OC)cc1N(C)CCN(C)C [Example 117, N-(5-((4-(5-cyano-3-ethyl-1H-indazol-1-yl)-5-(trifluoromethyl)pyrimidin-2-yl)amino)-2-((2-(dimethylamino)ethyl)(methyl)amino)-4-methoxyphenyl)acrylamide] | 6.65
0.4 | 8.75 | 3.5 | 2.09 | 348 | C=CC(=O)Nc1cc(Nc2nccc(-n3ncc4cc(OCCOC)ccc43)n2)c(OC)cc1N(C)CCN(C)C [Example 121, N-(2-((2-(dimethylamino)ethyl)(methyl)amino)-4-methoxy-5-((4-(5-(2-methoxyethoxy)-1H-indazol-1-yl)pyrimidin-2-yl)amino)phenyl)acrylamide] | 166.41
0.49 | 17.14 | 8.4 | 114 | 890 | COc1cc(N(C)CCN(C)C)c(NC(=O)/C=C/CN(C)C)cc1Nc1nccc(-c2cn(C3CC3)c3ccccc23)n1 [Example 122, (E)-N-(5-((4-(1-cyclopropyl-1H-indol-3-yl)pyrimidin-2-yl)amino)-2-((2-(dimethylamino)ethyl)(methyl)amino)-4-methoxyphenyl)-4-(dimethylamino)but-2-enamide] | 7.84
0.44 | 5.23 | 2.3 | 2.98 | 88.2 | C=CC(=O)Nc1cc(Nc2nccc(-c3cn(C)c4cc(OC)ccc34)n2)c(OC)cc1N(C)CCNC [Example 127, N-(4-methoxy-5-((4-(6-methoxy-1-methyl-1H-indol-3-yl)pyrimidin-2-yl)amino)-2-(methyl(2-(methylamino)ethyl)amino)phenyl)acrylamide] | 29.58
0.46 | 10.04 | 4.62 | 7.5 | 444 | C=CC(=O)Nc1cc(Nc2nccc(-n3ncc4c(OC)cccc43)n2)c(OC)cc1N(C)CCN1CCCC1 [Example 135, N-(4-methoxy-5-((4-(4-methoxy-1H-indazol-1-yl)pyrimidin-2-yl)amino)-2-(methyl(2-(pyrrolidin-1-yl)ethyl)amino)phenyl)acrylamide] | 59.19
0.5 | 9.84 | 4.92 | 3.37 | 408 | C=CC(=O)Nc1cc(Nc2nccc(-n3cnc4cc(OC)ccc43)n2)c(OC)cc1N(C)CCN1CCCC1 [Example 138, N-(4-methoxy-5-((4-(5-methoxy-1H-benzo[d]imidazol-1-yl)pyrimidin-2-yl)amino)-2-(methyl(2-(pyrrolidin-1-yl)ethyl)amino)phenyl)acrylamide] | 121.22
